Assay results: patent US20050019825A9, “Common ligand mimics: pseudothiohydantoins” (priority 2002, published 2005)
Where “and” joins values, the source holds several entries; their conditions need not be identical. Identical values can stand only once.

Biological target: dihydrodipicolinate reductase (DHPR) (Escherichia coli, UniProt P04036)
Assay: Screening of bi-ligands for DHPR (Example 25), kinetic assay at 340 nm
Type: biochemical
Conditions: bi-ligands, Example 25 (FIG. 7); substrate and NADPH near Km
Method: Screening of Biligands for Binding to Dihydrodipicolinate Reductase (DHPR)
This example describes the screening of bi-ligands having common ligand mimics for binding activity to dihydrodipicolinate reductase (DHPR).
Bi-ligands were produced by the methods of Examples 16 to 18. The bi-ligands were screened for binding to DHPR.
Stock solutions of each of the reagents were prepared in the following concentrations. Dilutions of the stock solutions were prepared prior to running the assay in the concentrations indicated below. Dilution of DHPR was prepared in 10 mM HEPES at a pH of 7.4. DHPS was not diluted and was stored in eppindorf tubes.
The L-ASA solution was prepared in the following manner. 180 μM stock solution of ASA was prepared. 100 μl of the ASA stock was mixed with 150 μl of concentrated NaHCO3 and 375 μl of […]. For use in the assay, 28.8 mM L-ASA equal 625 μl of the solution. The L-ASA stock solution was kept at a temperature of −20° C. After dilution, the pH of the 28.8 mM solution was checked and maintained between 1 and 2.
First, the DHPS reaction was monitored at 340 nm prior to and after addition of the inhibitor to detect background reaction with the inhibitor. The solution for background detection was a 945 μl solution containing 0.1 HEPES (pH 7.8), 1 mM pyruvate, 6 μM NADPH, 40 μM L-ASA, and 7 μl of 1 mg/ml DHPS at 25° C. in the volumes provided above. The sample solution was then mixed and incubated for 10 minutes. Next, 500 nM solutions of the inhibitors and enough DMSO to provide a final DMSO concentration of 5% were added. The solution was mixed and incubated for an additional 6 minutes.
In DHPR samples, 5 μl of the diluted DHPR enzyme were added. The sample was mixed for 20 seconds and then the reaction was run for 10 minutes. After a 50 second lag, the samples were read in a Cary spectrophotometer at 340 nm. Reading of the samples was continued until 300 seconds. Cuvette #1 contained the control reaction (no inhibitor), and cuvette #2 contained the positive control reaction in which Cibacron Blue at 2.58 μM was substituted for inhibitor to yield 70 to 80% inhibition. The substrate and NADPH or NAHD were kept near their Km values.

Sequence of dihydrodipicolinate reductase (DHPR) (P04036 whole entry): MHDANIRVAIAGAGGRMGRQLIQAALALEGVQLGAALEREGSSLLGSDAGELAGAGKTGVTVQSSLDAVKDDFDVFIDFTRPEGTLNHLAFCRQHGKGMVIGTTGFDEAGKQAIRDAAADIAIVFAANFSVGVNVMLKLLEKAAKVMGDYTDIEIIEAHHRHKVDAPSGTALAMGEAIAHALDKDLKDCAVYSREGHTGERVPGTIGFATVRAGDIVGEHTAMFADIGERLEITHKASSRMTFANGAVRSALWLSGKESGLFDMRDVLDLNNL

SMILES | IC50
N=C1NC(=O)C(=Cc2ccc(O)c(C(=O)NCCSc3cc(C(=O)O)nc(C(=O)O)c3)c2)S1 [compound 5a, 4-{2-[2-hydroxy-5-(2-imino-4-oxo-thiazolidin-5-ylidenemethyl)-benzoylamino]-ethylsulfanyl}-pyridine-2,6-dicarboxylic acid] | ~8.2 µM and ~15.5 µM
N=C1NC(=O)C(=Cc2cccc(C(=O)NCCSc3cc(C(=O)O)nc(C(=O)O)c3)c2)S1 [compound 5b, 4-{2-[3-(2-imino-4-oxo-thiazolidin-5-ylidenemethyl)-benzoylamino]-ethylsulfanyl}-pyridine-2,6-dicarboxylic acid] | ~1.02 µM
N=C1NC(=O)C(=Cc2ccc(C(=O)NCCSc3cc(C(=O)O)nc(C(=O)O)c3)cc2)S1 [compound 5c, 4-{2-[4-(2-imino-4-oxo-thiazolidin-5-ylidenemethyl)-benzoylamino]-ethylsulfanyl}-pyridine-2,6-dicarboxylic acid] | ~33 µM
